US4107158A, “Process for making an octapeptide useful for the treatment of diabetes” (Choay S.A., priority 1974, dated 1978)
Where no end group is shown, it is not given here.

What was measured:
adult rabbits = assay: Effect on the in vivo effect of insulin: intravenous glucose tolerance in the rabbit
Description: The assays were carried out in the course of the tests carried out to determine the resistance to glucose injected by the intravenous route in the rabbit.
These tests were done on adult rabbits, which had been subjected to prior fasting for 24 hours. Blood was drawn off and the glucose level in the blood samples was determined. The measurement was carried out by the ferricyanide method as adapted for the "Technicon Autoanalyser" (J. Biol. Chem. 120 : 51 - 55, 1937). In this way the glucose level on fasting, then its variation after the intravenous injection of glucose, at the dose of 1 gram per kilo, was determined. These measurements were then renewed in rabbits which had received, 5 minutes after the glucose, an intravenous injection of the compound (1) (5μg/kg).

[1] = target: glyceraldehyde 3-phosphate dehydrogenase (Homo sapiens, UniProt P04406); assay: Enzymatic effect in vitro: lifting of somantine inhibition of glyceraldehyde 3-phosphate dehydrogenase; type: biochemical
glyceraldehyde 3-phosphate dehydrogenase, sequence (P04406 whole entry, species assumed): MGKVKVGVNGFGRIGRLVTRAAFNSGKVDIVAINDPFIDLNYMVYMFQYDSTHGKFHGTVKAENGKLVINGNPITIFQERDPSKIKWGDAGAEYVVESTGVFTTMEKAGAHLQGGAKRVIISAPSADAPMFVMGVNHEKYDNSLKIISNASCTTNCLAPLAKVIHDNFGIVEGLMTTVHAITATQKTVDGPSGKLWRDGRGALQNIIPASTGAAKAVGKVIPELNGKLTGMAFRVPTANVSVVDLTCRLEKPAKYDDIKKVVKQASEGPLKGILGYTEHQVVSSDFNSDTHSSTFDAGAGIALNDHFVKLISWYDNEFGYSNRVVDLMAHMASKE
Description: In this test, the compound (I) was tested for its ability to raise the inhibition of a somantine extracted from a plasma with respect to the action of glyceraldehyde 3-phosphate dehydrogenase.
To this end, the activity of the enzyme in the presence successively of somantine alone, of the compound (1) alone, and finally in the presence of somantine and of the compound (I), were measured.
In this test, the glyceraldehyde 3-phosphate dehydrogenase was used at a concentration of […], the somantine at 25 μg/ml, and the compound (I) at 50 μg/ml.
The method used for the measurements is that of Pihl and Lang (J. Biol. Chem 237 : 1356 - 1362, 1962).
The percentage of inhibition of the enzyme found under these conditions is as follows: […]

[2] = tested on: isolated hemidiaphragm of the rat; assay: Consumption of glucose in vitro, isolated rat hemidiaphragm; type: cell-based, Wistar albino male rats
Description: To follow this consumption, the isolated hemidiaphragm of the rat in vitro was used. The method employed is that described by Park et al. (Effect of insulin on free glucose content of rat diaphragm in vitro -- Amer. J. Physiol. 182 : 12 - 16, 1955). The hemidiaphragm derived from Wistar albino male rats each weighing 200 to 250 g was used. The rats were fed freely for 7 days and then starved for 24 hours. The solutions studied contained 2 mg/ml of glucose, 500 μU/ml of insulin. The compound (I) was introduced at 250 μg/ml. The consumption of glucose related to the weight of tissue in grams and per hour was under these conditions: […]

mice [3] = assay: Tolerance: acute and subacute toxicity study in mice; type: in vivo; conditions: 1 month, daily dosages 5 to 10 times the active dosage
Description: An acute and subacute toxicity study was carried out on mice for 1 month, each mouse receiving daily dosages corresponding to 5 to 10 times the active dosage.

[4] = tested on: insulin receptors of lipid cells; assay: Insulin binding to trypsinated lipid cells; type: cell-based; conditions: octapeptide introduced into the medium; trypsinated cells alone no longer fix insulin
From the text: In an attempt to elucidate the mechanism of action of the octapeptide (I) with respect to insulin, the phenomena were first studied at the level of the insulin receptors of lipid cells trypsinated to destroy said receptors.

[5] = tested on: glucose receptors of the Langerhans islets; assay: Glucose-stimulated insulin liberation from Langerhans islets of treated animals; type: cell-based; conditions: islets removed one day or four days after injection of octapeptide; versus controls
Description: Finally, the effect of the octapeptide (I) on the glucose receptors of the Langerhans islets was determined. For this purpose, the octapeptide (I) was injected into animals.
One day or four days later, the animals were killed and the islets of Langerhans removed. The latter were placed in a reaction medium supplemented with glucose, and the amount of insulin liberated was determined and compared tocontrols.

diabetic rats = assay: Effect on glycemia in diabetic animals; type: in vivo; conditions: glucose 0.5 g/kg; for course of glycemia after simultaneous injection with glucose: diabetic rats fasted 4 hours, octapeptide 2 μg/g
Description: In this test, the drop in glycemia was compared after the simultaneous injection of glucose, on the one hand, and, on the other hand, either of the octapeptide at the dosage of 2 μg (I), or of insulin, or again of both at once. In that latter case the dosage of octapeptide used was also 2μg/g. The tests were carried out on diabetic rats, kept fasting for 4 hours before the injection of glucose (at the dose of 0.5 g/kg of animal).

mice [6] = assay: Influence on glycemia in mice after glucose injection; type: in vivo
From the text: d. Influence of octapeptide (I) on glycemia has been determined in mice under conditions similar to those described for rabbits. The experiment included two series of tests aimed at studying the immediate effects and the prolonged effects.
In the first series of tests, a simultaneous injection of glucose and of the octapeptide (1) was made, and the lowering of glycemia with respect to that of control animals which had not received glucose, was followed as a function of time.
The injections were respectively of 0.25 g of glucose and 2 mg per kilo of body weight of the animal, namely about 40 μg, of octapeptide (I) or […].
In the second series of tests, the mice received the product before the injection of glucose. Three injections each of 40μg of octapeptide (1) were administered respectively 72, 48 and 24 hous before the injection of glucose.

hepatic cells = assay: Insulin binding to hepatic cells; type: cell-based
Description: In the same way, the ratio of insulin binding to hepatic cells placed in a suitable reaction medium was measured. When the medium contains octapeptide (I), the ratio of insulin binding to the hepatic cells increases. The result is similar if the said cells are incubated with octapeptide (I).

Row | Substance | glucose level reached, compared with fasting level (adult rabbits; glucose 1 g/kg i.v., compound 5 μg/kg i.v.) | decrease in the glucose level after i.v. glucose (adult rabbits; glucose 1 g/kg i.v., compound 5 μg/kg i.v. 5 minutes after glucose, versus rabbits without compound) | persistence of effect on the carbohydrate metabolism after injection (adult rabbits; similar tests at intervals of several days) | effect on the inhibiting effect of somantine (in words) ([1]; compound (I) 50 μg/ml together with somantine 25 μg/ml) | effect on the activity of the enzyme (in words) ([1]; compound (I) alone, 50 μg/ml) | inhibition at 50 µg/mL ([1]; enzyme 0.5 μml, somantine 25 μg/ml, compound (I) 50 μg/ml, read-out: percentage of inhibition of the enzyme) [%] | consumption of glucose in the presence of insulin (in words) ([2]; compound (I) 250 μg/ml added to glucose + insulin) | toxic effect, macro and microscopic studies (mice [3]) | insulin binding to trypsinated lipid cells [4] | level of insulin liberated by Langerhans islets in glucose-supplemented medium [5] | course of glycemia after simultaneous injection with glucose (diabetic rats) | drop in glycemia, immediate effect (mice [6]; simultaneous injection of glucose and about 40 μg octapeptide, versus controls) | drop in glycemia, prolonged effect (mice [6]; three injections of 40 μg at 72, 48 and 24 hours before glucose, versus controls receiving only glucose) | ratio of insulin binding to hepatic cells (hepatic cells; cells incubated with octapeptide (I)) | ratio of insulin binding to hepatic cells (hepatic cells; medium contains octapeptide (I)) | Consumption of glucose ([2]; related to weight of tissue in grams and per hour, glucose 2 mg/ml, insulin 500 μU/ml, compound (I) 250 μg/ml) [mg] | time after which glycemia rises again (diabetic rats; diabetic rats)
1 | LSRLFDNA [compound (I), leucyl--seryl--arginyl--leucyl--phenylalanyl--aspartyl--asparaginyl-alanine] | less than those which were measured in the fasting rabbits | greater | persists several days | partly suppressed | practically without effect | 1 | increased | not shown any toxic effect | the binking reasppears | very substantial increase | practically unmodified | distinctly more accentuated | more rapid drop in glycemia | similar | increases |  | 
2 | insulin: insulin, 500 μU/ml in glucose solution in the hemidiaphragm test |  |  |  |  |  |  |  |  |  |  | decreases rapidly, stabilises, then rises again |  |  |  |  | 4.10 ± 0.15 | about 120 minutes
